From PubChem BioAssay (NCI)
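Abbreviation: GI50, concentration required for 50% inhibition of growth. At the TGI there is no net growth.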

Columns and labels:
Experiment in all cases: NCI anticancer screen, dose series, 384-well format
[1] = tested on: SK-MEL-5 melanoma
[2] = tested on: OVCAR-5 ovarian
[3] = tested on: M14 melanoma
[4] = tested on: HL-60(TB) leukemia
[5] = tested on: NCI-H522 lung
[6] = tested on: UACC-62 melanoma
[7] = tested on: EKVX NSCLC
[8] = tested on: DU-145 prostate
[9] = tested on: PC-3 prostate
[10] = tested on: SK-MEL-28 melanoma
[11] = tested on: MDA-MB-468 breast
[12] = tested on: SR leukemia
[13] = tested on: OVCAR-3 ovarian
[14] = tested on: SNB-19 CNS
[15] = tested on: SNB-75 CNS
[16] = tested on: NCI-H226 lung
[17] = tested on: LOX IMVI melanoma
[18] = tested on: HCC-2998 colon
[19] = tested on: RXF 393 renal
[20] = tested on: SN12C renal
[21] = tested on: RPMI-8226 leukemia
[22] = tested on: UACC-257 melanoma
[23] = tested on: KM12 colon
[24] = tested on: ACHN renal
[25] = tested on: OVCAR-8 ovarian
[26] = tested on: SF-539 CNS
[27] = tested on: NCI/ADR-RES ovarian

Compound `COC1CCN(C(=O)c2cc(Cc3n[nH]c(=O)c4ccccc34)ccc2F)CC1` has a GI50 [1] of 74.2 µM, a TGI [1] of over 100 µM and a GI50 [2] of over 100 µM. It also gave a TGI [2] of over 100 µM, a GI50 [3] of 74.7 µM and a TGI [3] of over 100 µM. The GI50 [4] was 10.4 µM, the TGI [4] was 29.7 µM and the GI50 [5] was over 100 µM. For the same compound, the TGI [5] was over 100 µM, the GI50 [6] was over 100 µM and the TGI [6] was over 100 µM. It also gave a GI50 [7] of over 100 µM, a TGI [7] of over 100 µM and a GI50 [8] of 68.2 µM. It also gave a TGI [8] of over 100 µM, a GI50 [9] of over 100 µM and a TGI [9] of over 100 µM. For the same compound, the GI50 [10] was over 100 µM, the TGI [10] was over 100 µM and the GI50 [11] was 9.62 µM. For the same compound, the TGI [11] was 33.3 µM, the GI50 [12] was 0.364 µM and the TGI [12] was 2.45 µM. The GI50 [13] was 7.79 µM, the TGI [13] was over 100 µM and the GI50 [14] was 46.9 µM. It also gave a TGI [14] of over 100 µM, a GI50 [15] of 94.7 µM and a TGI [15] of over 100 µM. For the same compound, the GI50 [16] was over 100 µM, the TGI [16] was over 100 µM and the GI50 [17] was 33.5 µM. The TGI [17] was over 100 µM, the GI50 [18] was 63.7 µM and the TGI [18] was over 100 µM. It also gave a GI50 [19] of over 100 µM, a TGI [19] of over 100 µM and a GI50 [20] of 46.1 µM. The TGI [20] was over 100 µM, the GI50 [21] was 46.6 µM and the TGI [21] was over 100 µM. It also gave a GI50 [22] of over 100 µM, a TGI [22] of over 100 µM and a GI50 [23] of over 100 µM. For the same compound, the TGI [23] was over 100 µM, the GI50 [24] was over 100 µM and the TGI [24] was over 100 µM. The GI50 [25] was 22.6 µM, the TGI [25] was over 100 µM and the GI50 [26] was 27.3 µM. It also gave a TGI [26] of over 100 µM, a GI50 [27] of 34.9 µM and a TGI [27] of over 100 µM.
